Where “and” joins values, the source holds several entries; their conditions need not be identical. Equal entries are not always repeated. Strand notation (5' to 3'): a small letter for the sugar, then the base; units joined by * are phosphorothioate-linked, units joined directly phosphodiester-linked; [ ] holds rarer units or linkages, { } end groups; capitals alone tell only the bases. k = constrained ethyl (cEt); [5mC] = 5-methylcytosine; d = 2'-deoxy (DNA)
Assays:
[1] = test system: human SMAD7 mRNA; assay: Antisense inhibition of human SMAD7 mRNA expression in Hep3B cells by 3-10-3 cEt gapmers, 10,000 nM, electroporation (Example 2); type: cell-based; details: approximately 24 hours, primer probe set RTS5062, relative to untreated control cells
Method in brief: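 Percent inhibition of SMAD7 mRNA, relative to untreated cells, after ~24 h exposure of electroporated Hep3B cells to 10,000 nM cEt gapmer; levels by qRT-PCR, corrected for total RNA.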

[2] = Hematology assays after subcutaneous administration in CD-1 mice (Example 6); type: in vivo; parameters: RBC / Eosinophils / Monocytes: unit not given here; details: 50 mg/kg subcutaneous twice weekly for 7 weeks
Description: (§1) Groups of 8-9 week old male CD-1 mice were injected subcutaneously twice a week for 7 weeks with 50 mg/kg of Ionis oligonucleotides (100 mg/kg/week dose). Each group contained 4 mice. One group of male CD-1 mice was injected subcutaneously twice a week for 7 weeks with PBS. Plasma was collected for analysis on day 28.
Blood obtained from all mouse groups was measured by an ADVIA2120i hematology analyzer (Siemens, USA) for measurements of the various blood cells, as well as other hematology markers.

[3] = Plasma chemistry markers after subcutaneous administration in CD-1 mice (Example 6); type: in vivo; details: CD-1 mice plasma at day 46; 50 mg/kg subcutaneously twice a week for 7 weeks
Description: CD-1® mice (Charles River, Mass.) are a multipurpose mice model, frequently utilized for safety and efficacy testing. The mice were treated with Ionis human SMAD7 antisense oligonucleotides selected from studies described above and evaluated.
Groups of 8-9 week old male CD-1 mice were injected subcutaneously twice a week for 7 weeks with 50 mg/kg of Ionis oligonucleotides (100 mg/kg/week dose). Each group contained 4 mice. One group of male CD-1 mice was injected subcutaneously twice a week for 7 weeks with PBS. […]

[4] = test system: mouse Smad7 mRNA; assay: Pharmacology: mouse Smad7 mRNA expression in liver, kidney, duodenum, ileum and colon after subcutaneous administration in CD-1 mice (Example 6); type: in vivo; details: 50 mg/kg subcutaneous twice weekly for 7 weeks, normalized to GAPDH
Description: as §1
The pharmacological activity of the Ionis oligonucleotides in mice was assessed by measuring mouse Smad7 mRNA expression in liver, kidney, duodenum, ileum, and colon at necropsy.
Tissue samples from all mice were analyzed for Smad7 mRNA expression using the primer probe set HTS7555 (forward sequence […], designated SEQ ID NO: 2737; reverse sequence […], designated SEQ ID NO: 2738; probe sequence […], designated SEQ ID NO: 2739), which was normalized to mRNA levels of the housekeeping gene, GAPDH. One-way ANOVA with Dunnet's comparison test was used for statistical analysis.

[5] = test system: human SMAD7 mRNA; assay: Dose-dependent inhibition of human SMAD7 mRNA expression in Hep3B cells (Example 3, Study 1 and 2); type: cell-based; details: electroporation; for % inhibition of SMAD7 mRNA expression: approximately 16 hours
Method in brief: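 Hep3B cells, 20,000 per well, electroporated with antisense oligonucleotide at 0.31, 1.25, 5.00 or 20.00 μM (first series) or 0.74, 2.22, 6.67 or 20.00 μM (second series). After ~16 h, SMAD7 mRNA measured by RT-qPCR (RTS5062), normalised to RIBOGREEN total RNA. Percent inhibition vs untreated cells; IC50 derived.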

[6] = Organ weights after subcutaneous administration in CD-1 mice (Example 6); type: in vivo; details: end of study, 50 mg/kg subcutaneously twice a week for 7 weeks
Description: as §1
Ionis SMAD7 oligonucleotides that caused any changes in organ weights outside the expected range for antisense oligonucleotides were excluded from further studies.

[7] = test system: mouse Smad7 mRNA; assay: Murine Smad7 mRNA expression after subcutaneous administration in BALB/c mice (Example 10); type: in vivo; details: 50 mg/kg subcutaneous once a week for 4 weeks, 24 hours after last dose
Description: The objective of this study was to evaluate the efficacy of Ionis SMAD7 antisense oligonucleotides compared to ION 736697/Mongersen in BALB/c mice following 4 weeks of treatment. Both ION 830025 and ION 798781 are cross-reactive with mouse Smad7 mRNA.
Groups of BALB/c mice were subcutaneously administered 50 mg/kg of Ionis SMAD7 oligonucleotides once a week for 4 weeks. Each group contained 4 mice. One group of mice was administered PBS once a week for 4 weeks. […]

[8] = Tissue and organ histopathology after oral gavage in CD-1 mice (Example 7); type: in vivo; details: daily oral gavage 500 mg/kg for one month, in words
Description: Groups of 7-8 week old male CD-1 mice were given an oral gavage dose once daily for 4 weeks of 500 mg/kg of Ionis SMAD7 oligonucleotides. Each group contained 8 mice. One group of male CD-1 mice was administered saline by oral gavage daily.
Histopathology evaluations were performed on the mice treated with Ionis oligonucleotides to evaluate any tissue damage in the liver (with gallbladder), kidneys, heart, spleen, thymus, mesenteric lymph nodes, and different parts of the GI tract, including duodenum, ileum, and colon (proximal and distal). Tissues were collected and fixed in 10% neutral-buffered formalin, embedded in paraffin, sectioned, and stained with hematoxylin and eosin. All the tissues were histologically unremarkable in all mice.

[9] = test system: murine Smad7 mRNA; assay: Dose-dependent inhibition of murine Smad7 mRNA in bEND cells, electroporation (Example 5, Study 2); type: cell-based, mouse; details: in words
Description: Many of the Ionis designed oligonucleotides as well as ION 736697/Mongersen are complementary to mouse Smad7 mRNA. […] After a treatment period of approximately 16 hours, the cells were washed and lyzed and RNA on 384-well Pall plates with DNase I treatment. Smad7 mRNA levels were measured by quantitative real-time PCR. Primer probe set RTS1114 (forward sequence […], designated herein as SEQ ID NO: 8; reverse sequence […], designated herein as SEQ ID NO: 9; probe sequence […], designated herein as SEQ ID NO: 10) was used to measure murine Smad7 mRNA levels. Smad7 mRNA levels were adjusted according to total RNA content, as measured by RIBOGREEN®. Results are presented as percent inhibition of Smad7 mRNA expression, relative to untreated control cells.
Many of the Ionis oligonucleotides had greater potency than ION 736697/Mongersen.

[10] = Plasma chemistry markers after oral gavage in beagle dogs (Example 12); details: 200 mg by oral gavage for 4 weeks, day 30, in words
Description: The study was conducted to evaluate the tolerability and pharmacodynamics of select human SMAD7 antisense oligonucleotides in beagle dogs following 4 weeks of treatment. The dogs were administered oligonucleotides by oral gavage.
(§2) Groups of 24-25 week old male beagle dogs were administered 200 mg Ionis human SMAD7 oligonucleotide by oral gavage once a week for 4 weeks. There were 4 animals per group. A control group of dogs received oral administration of distilled water. Dogs were sacrificed on day 30 approximately 48 hours after the final dose and organs and plasma were harvested for further analysis.
To evaluate the effect of Ionis SMAD7 oligonucleotides on liver and kidney function, approximately 1.5 mL of blood samples were collected and put into tubes without anticoagulant for serum separation. The tubes were kept at room temperature for a minimum of 90 min and then centrifuged (approximately 3,000 rpm for 10 min) to obtain serum. Plasma levels of transaminases, albumin, bilirubin, and BUN were measured using an automated clinical chemistry analyzer (Toshiba 200FR Neo chemistry analyzer, Toshiba Co., Japan).

[11] = test system: human SMAD7 mRNA; assay: Dose-dependent inhibition of human SMAD7 mRNA expression in A431 cells, oligonucleotide added without transfection (Example 5, Study 1); type: cell-based; details: SMAD7 mRNA, in words
Description: The newly designed compounds disclosed herein are cEt-modified antisense oligonucleotides. […] The studies described below show a comparison of select cEt-modified gapmers and ION0736697/Mongersen.
A431 cells were plated in collagen I-coated 96-well plates in DMEM with […]. Immediately after plating, 0.08 μM, 0.25 μM, 0.74 μM, 2.22 μM, 6.67 μM, or 20.00 μM concentrations of antisense oligonucleotide were added. The plates were shaken briefly before incubating at 37° C. and 10% CO2. After a treatment period of approximately 48 hours, the cells were washed and lyzed and RNA on 384-well Pall plates with DNase I treatment. SMAD7 mRNA levels were measured by quantitative real-time PCR. Primer probe set RTS5062 was used to measure human SMAD7 mRNA levels. SMAD7 mRNA levels were adjusted according to total RNA content, as measured by RIBOGREEN®. Results are presented as percent inhibition of SMAD7 mRNA expression, relative to untreated control cells.
All Ionis oligonucleotides had greater potency than ION 736697/Mongersen.

[12] = Pharmacokinetics: oligonucleotide concentration in tissues after oral gavage in beagle dogs (Example 12); type: in vivo
Description: There were 4 animals per group.
Canine tissue exposure following oral administration of the Ionis SMAD7 oligonucleotides was measured in various organs and intestinal tissues.
Plasma concentrations of Ionis oligonucleotides were also measured on Day 28 at various time points.

[13] = Organ weights after oral gavage in beagle dogs (Example 12); details: 200 mg by oral gavage for 4 weeks, day 30, in words
Description: as §2

[14] = Plasma chemistry markers after subcutaneous administration in beagle dogs (Example 8); details: 30 mg/kg subcutaneously, day 31, in words
Description: Groups of 24-25 week old male beagle dogs were injected subcutaneously with 30 mg/kg ION Ionis oligonucleotide. There were 4 animals per group. Dogs were injected every two days for the first week (day 1, 3, and 5) and once weekly thereafter (days 8, 15, 22, and 29). A control group of dogs received subcutaneous injections of PBS. Dogs were sacrificed on day 31 approximately 48 hours after the final dose and organs and plasma were harvested for further analysis.
To evaluate the effect of Ionis SMAD7 oligonucleotides on liver and kidney function, plasma levels of transaminases, albumin, creatine and BUN were measured using an automated clinical chemistry analyzer (Toshiba 200FR Neo chemistry analyzer, Toshiba Co., Japan).

799144 (antisense kT*kT*kG*dG*dG*dT*dT*dA*dT*dG*dA*d[5mC]*dG*kG*kA*k[5mC]) [compound 799144]
% inhibition of SMAD7 mRNA expression ([1]; Hep3B cells, electroporation with 10,000 nM antisense oligonucleotide): 72% | % Inhibition ([1]; SMAD7 mRNA, Hep3B cells, 10,000 nM antisense oligonucleotide, electroporation): 72% | Eosinophils [2]: 2.9 | Hematocrit [2]: 43.1% | Hemoglobin [2]: 14.3 g/dL | Lymphocytes [2]: 80.7% | MCH [2]: 15.2 pg | MCHC [2]: 33.2 g/dL | MCV [2]: 45.8 fL | Monocytes [2]: 4.9 | Neutrophils [2]: 11.4% | RBC [2]: 9.5 | Reticulocytes [2]: 3.3% | WBC [2]: 6.2 10^3/μL | platelets [2]: 614.0 10^3/μL | Basophils ([2]; n.d. = below detection levels): 0.1 10^3/μL | ALT [3]: 253 IU/L | AST [3]: 170 IU/L | Albumin [3]: 2.7 g/dL | BUN [3]: 21 mg/dL | % inhibition of Smad7 mRNA expression (compared to control), Kidney ([4]; kidney): 3% | % inhibition of Smad7 mRNA expression (compared to control), Liver ([4]; liver): 0% | % inhibition of SMAD7 mRNA expression ([5]; 740 nM, Study 2, relative to untreated control cells): 32% and 40% | % inhibition of SMAD7 mRNA expression ([5]; 2220 nM, Study 2): 50% and 57% | % inhibition of SMAD7 mRNA expression ([5]; 6670.0 nM, Study 2): 67% and 60% | % inhibition of SMAD7 mRNA expression ([5]; 20000.0 nM, Study 2): 83% and 87% | IC50 ([5]; Study 2 (740-20000 nM)): 2000 nM and 1000 nM | Organ weights, Kidneys [6]: 0.6 g | Organ weights, Liver [6]: 2.3 g | Organ weights, Spleen [6]: 0.1 g

ION 790615: 3-10-3 (S)-cEt gapmer targeting human SMAD7; top lead compound (k[5mC]*k[5mC]*kA*dA*dT*dG*dA*dG*dA*dA*dT*dG*d[5mC]*kT*kT*k[5mC])
Mouse Smad7 mRNA expression (% inhibition), Colon [7]: 71 % inhibition | Mouse Smad7 mRNA expression (% inhibition), Duodenum [7]: 39 % inhibition | Mouse Smad7 mRNA expression (% inhibition), Ileum [7]: 41 % inhibition | Mouse Smad7 mRNA expression (% inhibition), Kidney [7]: 28 % inhibition | Mouse Smad7 mRNA expression (% inhibition), Liver [7]: 47 % inhibition | Histopathology: oligonucleotide-related tissue alterations [8]: not associated with any antisense oligonucleotide-related tissue alterations

ION 798781 (CGTAAGATTCACAGCA; 3-10-3 cEt gapmer, further chemistry not given here)
Potency compared with ION 736697/Mongersen [9]: more potent than ION 736697/Mongersen | Tolerability (plasma chemistry markers) [10]: very well tolerated | Mouse Smad7 mRNA expression (% inhibition), Colon [7]: 41 % inhibition | Mouse Smad7 mRNA expression (% inhibition), Duodenum [7]: 27 % inhibition | Mouse Smad7 mRNA expression (% inhibition), Ileum [7]: 22 % inhibition | Mouse Smad7 mRNA expression (% inhibition), Kidney [7]: 11 % inhibition | Mouse Smad7 mRNA expression (% inhibition), Liver [7]: 36 % inhibition | Potency/efficacy compared with ION 736697/Mongersen [11]: more efficacious than ION 736697/Mongersen | Tissue accumulation of oligonucleotide ([12]; 200 mg by oral gavage for 4 weeks, in words): higher accumulation in the liver and kidneys | Oligonucleotide concentration in tissues, Duodenum ([12]; 200 mg oral gavage for 4 weeks, duodenum): 0.6 µg/g | Oligonucleotide concentration in tissues, Ileum ([12]; 200 mg oral gavage for 4 weeks, ileum): 0.5 µg/g | Oligonucleotide concentration in tissues, Kidney ([12]; 200 mg oral gavage for 4 weeks, kidney): 108.1 µg/g | Oligonucleotide concentration in tissues, Liver ([12]; 200 mg oral gavage for 4 weeks, liver): 12.9 µg/g | Oligonucleotide concentration in tissues, Proximal colon ([12]; 200 mg oral gavage for 4 weeks, proximal colon): 0.1 µg/g | Tolerability (organ weights) [13]: very well tolerated | Tolerability (plasma chemistry markers) [14]: well tolerated | Histopathology: oligonucleotide-related tissue alterations [8]: not associated with any antisense oligonucleotide-related tissue alterations

From US10517889B2, “Modulators of SMAD7 expression” (Ionis Pharmaceuticals, Inc., priority 2017, dated 2019)
